Experimental data published in ChEMBL document CHEMBL1149578, “Design, synthesis, and discovery of stilbene derivatives based on lithospermic acid B as potent protein tyrosine phosphatase 1B inhibitors” (Bioorg Med Chem Lett, 2007).
pIC50: −log10 of the molar value. Active and inactive are the calls of the source. The rule behind the calls is not given here.

Legend:
[1] = target: T1, Tyrosine-protein phosphatase non-receptor type 1 (Homo sapiens) (UniProt P18031); assay: (§1) Inhibition of PTP1B by colorimetric assay
T1 sequence (whole entry): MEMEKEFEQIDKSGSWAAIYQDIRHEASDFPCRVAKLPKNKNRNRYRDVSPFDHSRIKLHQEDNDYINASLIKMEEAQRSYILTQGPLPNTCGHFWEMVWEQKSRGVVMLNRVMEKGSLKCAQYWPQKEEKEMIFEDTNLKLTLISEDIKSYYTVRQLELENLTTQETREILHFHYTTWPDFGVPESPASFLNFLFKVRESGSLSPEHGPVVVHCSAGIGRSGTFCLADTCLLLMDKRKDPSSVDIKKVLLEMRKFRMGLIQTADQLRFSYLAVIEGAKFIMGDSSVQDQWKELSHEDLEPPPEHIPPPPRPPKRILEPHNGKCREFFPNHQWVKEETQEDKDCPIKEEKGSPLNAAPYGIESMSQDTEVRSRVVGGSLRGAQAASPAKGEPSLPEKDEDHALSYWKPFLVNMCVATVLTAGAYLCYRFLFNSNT

[2] = target: T2, Tyrosine-protein phosphatase non-receptor type 1 (Homo sapiens, UniProt P18031); assay: as §1
T2 sequence (P18031 whole entry): T1 sequence (whole entry)

SMILES | Activity [1] | pIC50 [2]
O=[N+]([O-])c1ccc(/C=C/c2cccc(O)c2)c([N+](=O)[O-])c1 | inactive | –
O=Cc1ccc(/C=C/c2ccc(O)c(O)c2)cc1 | – | 4.00
O=C(/C=C/c1ccc(O)c(O)c1)Nc1ccccc1 | inactive | –
COC(=O)c1ccc(/C=C/c2ccc(OC)c(OC)c2)cc1 | inactive | –
COC(=O)/C=C/c1ccc(/C=C/c2ccc(OC)c(OC)c2)cc1 | inactive | –
C(=C/c1ccccc1)/c1ccccc1 | inactive | –
OCc1ccc(/C=C\c2ccc(O)c(O)c2)cc1 | – | 3.86
O=C(NCC1CCCO1)c1ccc(/C=C\c2ccc(O)c(O)c2)cc1 (stereo unspecified) | inactive | –
COC(=O)c1ccc(/C=C/c2ccc(O)c(O)c2)cc1 | – | 4.59
COC(=O)C=Cc1ccc(/C=C\c2ccc(O)c(O)c2)cc1 | inactive | –
COc1cc(/C=C/C(=O)CC(=O)/C=C/c2ccc(O)c(OC)c2)ccc1O | inactive | –
COc1ccc(/C=C/c2ccc(O)cc2)cc1OC | inactive | –
O=[N+]([O-])c1ccc(/C=C/c2cccc(O)c2O)c([N+](=O)[O-])c1 | – | 3.77
CCN(CC)C(=O)/C=C/c1ccc(O)c(O)c1 | inactive | –
O=C(O)/C=C/c1ccc(O)c(O)c1 | inactive | –
CCCCCCCCCCCCCCCC(=O)C1=C(O)[C@@H](CO)OC1=O | – | 4.35
COC(=O)/C=C/c1ccc(/C=C/c2ccc(O)c(O)c2)cc1 | – | 4.83
OCc1ccc(/C=C/c2ccc(O)c(O)c2)cc1 | – | 3.59
O=C(Nc1ccccc1)c1ccc(/C=C/c2ccc(O)c(O)c2)cc1 | – | 4.57
O=C(NCC1CCCO1)c1ccc(/C=C/c2ccc(O)c(O)c2)cc1 (stereo unspecified) | – | 4.45
O=[N+]([O-])c1ccc(/C=C/c2ccc(O)c(O)c2)c([N+](=O)[O-])c1 | – | 3.72
